From patent US5221752A, “α-keto amide derivatives” (Nippon Kayaku Kabushiki Kaisha, priority 1990, dated 1993)
pIC50: −log10 of the molar value. *1 amine or outer side, *2 acyl side, *3 side chain or, on linkers, in order; H or OH if unused. Where a SMILES comes first, the peptide text is derived from it. [ ]: non-standard residue; d: D form. The star is where a group is joined. ξ: configuration not given here. X1 = O=C(C(=O)[*:2])C1CCCN1[*:1]; Cbz = O=C(OCc1ccccc1)*; ξV = CC(C)C(N)C(=O)O; OBn = c1ccc(CO*)cc1

Biological target: T1, prolyl endopeptidase (Sus scrofa, UniProt P23687)
T1 construct: prolyl endopeptidase obtained from porcine kidneys used as the enzyme; from tissue; host or cells: porcine kidneys
T1 sequence (P23687 whole entry): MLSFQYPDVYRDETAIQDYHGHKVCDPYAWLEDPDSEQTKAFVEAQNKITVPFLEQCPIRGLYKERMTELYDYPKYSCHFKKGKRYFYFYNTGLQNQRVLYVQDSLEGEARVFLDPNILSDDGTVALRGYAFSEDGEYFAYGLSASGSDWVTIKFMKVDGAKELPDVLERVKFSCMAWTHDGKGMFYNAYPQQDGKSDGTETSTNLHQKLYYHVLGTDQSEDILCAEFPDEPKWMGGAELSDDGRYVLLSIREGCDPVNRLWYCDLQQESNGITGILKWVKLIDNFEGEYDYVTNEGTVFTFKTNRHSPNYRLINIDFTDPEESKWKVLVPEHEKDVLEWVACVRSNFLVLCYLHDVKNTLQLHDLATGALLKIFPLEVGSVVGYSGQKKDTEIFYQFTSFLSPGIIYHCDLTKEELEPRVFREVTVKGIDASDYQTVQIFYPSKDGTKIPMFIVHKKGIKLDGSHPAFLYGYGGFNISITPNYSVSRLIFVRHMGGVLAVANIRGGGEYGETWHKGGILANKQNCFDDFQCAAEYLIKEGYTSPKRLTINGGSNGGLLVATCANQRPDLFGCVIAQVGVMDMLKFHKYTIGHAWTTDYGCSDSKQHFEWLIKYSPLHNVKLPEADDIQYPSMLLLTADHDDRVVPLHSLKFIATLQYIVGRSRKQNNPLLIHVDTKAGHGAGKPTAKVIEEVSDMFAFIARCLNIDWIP
Assay: Enzyme inhibiting activity (prolyl endopeptidase; substrate benzyloxycarbonylglycylproline β-naphthylamide)
Assay type: biochemical, porcine
Conditions: not given
Description: Experiments were conducted to evaluate the enzyme inhibiting activity of the compounds of the present invention by using prolyl endopeptidase as the enzyme model. They are given in the following Test Examples.
Method of Assaying Enzyme Inhibiting Activity
Benzyloxycarbonylglycylproline β-naphthylamide (0.1 mM) used as the substrate was reacted with prolyl endopeptidase obtained from porcine kidneys used as the enzyme in a 0.025 M tris(hydroxymethyl)methanamine hydrochloric acid solution (pH: 7.5) at 37° C. reaction mixture for 30 min and then the absorbance of the product at 525 nm was measured.

How did the pIC50 turn out when `CC(C)C[C@@H](NC(=O)C(=O)C1CCCN1C(=O)C(Cc1ccccc1)NC(=O)OCc1ccccc1)C(=O)OC(C)(C)C` (stereo partly drawn) [Example 16, N-Benzyloxycarbonylphenylalanyl-[2-oxo-2-(pyrrolidin-2-yl)acetyl]-D-leucin t-butyl ester] was run?
The pIC50 was 8.47.

With `CC(C)CC(NC(=O)C(=O)C1CCCN1C(=O)C(Cc1ccccc1)NC(=O)OCc1ccccc1)C(=O)OC(C)(C)C` (stereo not drawn) [Example 23, N-benzyloxycarbonylphenylalanyl-[2-oxo-2-(pyrrolidin-2-yl)acetyl]-leucine t-butyl ester] as the compound, how does the pIC50 read?
The pIC50 was 8.52.

`CC(C)C[C@@H](NC(=O)C(=O)C1CCCN1C(=O)C(NC(=O)C(NC(=O)OCc1ccccc1)C(C)C)C(C)C)C(=O)NC(C(=O)OCc1ccccc1)C(C)C` (stereo partly drawn) [Example 7, N-Benzyloxycarbonylvalylvalyl-[2-oxo-2-(pyrrolidin-2-yl)acetyl]-D-leucylvaline benzyl ester] (Cbz-[ξV][ξV][X1][dL][ξV]-OBn) was tested. Which pIC50 did it give?
Its pIC50 is 8.05.

`CC(C)C[C@@H](NC(=O)C(=O)C1CCCN1C(=O)OCc1ccccc1)C(=O)OC(C)(C)C` (stereo partly drawn) [Example 15, [2-Oxo-2-(N-benzyloxycarbonylpyrrolidin-2-yl)acetyl]-D-leucine t-butyl ester] was tested. Which pIC50 did it give?
Its pIC50 is 6.99.

How did the pIC50 turn out when `O=C(O)CNC(=O)C(=O)C1CCCN1C(=O)C(Cc1ccccc1)NC(=O)OCc1ccccc1` (stereo not drawn) [Example 22, N-Benzyloxycarbonylphenylalanyl-[2-oxo-2-(pyrrolidin-2-yl)acetyl]-glycine] was run?
Its pIC50 is 8.64.

How did the pIC50 turn out when `CC(C)C[C@@H](NC(=O)C(=O)C1CCCN1C(=O)C1CCCN1C(=O)OCc1ccccc1)C(=O)NC(C(=O)OCc1ccccc1)C(C)C` (stereo partly drawn) [Example 20, N-Benzyloxycarbonylprolyl-[2-oxo-2-(pyrrolidin-2-yl)acetyl]-D-leucylvaline benzyl ester] was run?
The pIC50 was 8.49.

With `CC(C)C[C@@H](NC(=O)C(=O)C1CCCN1C(=O)CC(C)(C)C)C(=O)OC(C)(C)C` (stereo partly drawn) [Example 14, [2-Oxo-2-(N-(3,3-dimethylbutanoyl)pyrrolidin-2-yl)-acetyl]-D-leucine t-butyl ester] as the compound, how does the pIC50 read?
Its pIC50 is 7.66.

How did the pIC50 turn out when `CC(C)(C)OC(=O)CNC(=O)C(=O)C1CCCN1C(=O)C(Cc1ccccc1)NC(=O)OCc1ccccc1` (stereo not drawn) [Example 21, N-Benzyloxycarbonylphenylalanyl-[2-oxo-2-(pyrrolidin-2-yl)acetyl]-glycine t-butyl ester] was run?
The pIC50 was 8.83.

`CC(C)C[C@@H](NC(=O)C(=O)C1CCCN1C(=O)C(NC(=O)C(N)C(C)C)C(C)C)C(=O)NC(C(=O)O)C(C)C` (stereo partly drawn) [Example 8, Valylvalyl-[2 oxo 2-(pyrrolidin-2-yl)acetyl]-D-leucylvaline] (H-[ξV][ξV][X1][dL][ξV]-OH) was tested. Which pIC50 did it give?
Its pIC50 is 7.70.

How did the pIC50 turn out when `CC(C)C[C@@H](NC(=O)C(=O)C1CCCN1C(=O)C(Cc1ccccc1)NC(=O)OCc1ccccc1)C(=O)O` (stereo partly drawn) [Example 17, N-Benzyloxycarbonylphenylalanyl-[2-oxo-2-(pyrrolidin-2-yl)acetyl)-D-leucine] was run?
Its pIC50 is 8.62.

With `CC(C)C[C@@H](NC(=O)C(=O)C1CCCN1C(=O)C(Cc1ccccc1)NC(=O)OCc1ccccc1)C(=O)NC(C)(C)C` (stereo partly drawn) [Example 19, N-Benzyloxycarbonylphenylalanyl-[2-oxo-2-(pyrrolidin-2-yl)acetyl]-D-leucinet-butylamide] as the compound, how does the pIC50 read?
The pIC50 was 8.63.

Same assay, conditions: prolyl endopeptidase from porcine kidneys; substrate 0.1 mM; pH 7.5; 37° C.; 30 min; absorbance 525 nm

Which “IC50 (concentration necessary for 50% inhibition)” value does the source give for “N-Benzyloxycarbonylphenylalanyl-[2 hydroxy-2-(pyrrolidin-2-yl)acetyl]-D-leucylvaline benzyl ester [Example 9]” here?
The value was 2.4 ng/mL.
